Consider 19 molecules from patent US4327178A, “Urinary kallikrein assay: specific substrates and assay method” (University of Miami, priority 1981, dated 1982).

Holding throughout (type): biochemical
The target of test [1] is purified urinary kallikrein (Homo sapiens, UniProt P06870). Description: Urinary kallikrein-catalyzed hydrolysis of N-alpha-acylated substrates relative to non-acylated compounds. To be noted: approximately 20 nM substrate, 60 ng purified urinary kallikrein, 100 μl 0.1 M tris HCl pH 9.5, 37° C., 15 minutes; conditions optimized for non-acylated substrate.
Chain of purified urinary kallikrein (P06870 25-262): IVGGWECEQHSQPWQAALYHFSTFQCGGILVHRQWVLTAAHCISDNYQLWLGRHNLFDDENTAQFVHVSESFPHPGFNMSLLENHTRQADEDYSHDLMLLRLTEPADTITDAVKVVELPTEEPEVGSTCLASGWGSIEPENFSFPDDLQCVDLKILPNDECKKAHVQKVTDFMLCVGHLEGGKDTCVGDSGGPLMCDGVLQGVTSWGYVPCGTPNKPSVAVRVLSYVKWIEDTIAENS
In test [2] the target is T1, human urinary kallikrein (Homo sapiens, UniProt P06870).
T1 construct: dialyzed or gel-filtered human urine in the general A1 assay
T1 sequence (P06870 25-262): as above
The experiment in a line: Assay of human urinary kallikrein: suitability as substrate (in words). The method, then: Human urine is treated to remove low molecular weight impurities, either by overnight dialysis against 0.9%(w/v) NaCl or by gel filtration. A typical reaction mixture may contain 50 μl dialyzed urine and 0.1 μCi of substrate at a final concentration of 20 ng/ml buffered with 0.1 M tris-HCl, pH 9.5, in a total reaction volume of 100 μl. Reaction tubes are incubated at 37° C. for two hours. Variations of incubation time and temperature for the purpose of increasing or decreasing the amount of product formed are known expedients within the scope of ordinary skill in the art. Reactions may be stopped by any technique which causes rapid termination of the enzyme-catalyzed reaction without significant alteration of the product concentration. Use of an excess volume of base, e.g., 1.0 ml of 0.1 NaOH, is preferred. The product is separated from the reaction mixture by extraction with a measured volume of an aprotic solvent such as toluene or ether, or by other suitable means such as ion-exchange chromatography. Where solvent extraction is employed, an aliquot of the solvent (containing reaction product) may be sampled for radioactivity counting. Scintillation counting is preferred for counting tritium, and use of an extracting solvent such as toluene or ether permits direct transfer of a solvent aliquot to the scintillation fluid.
A standard curve may be constructed substituting purified kallikrein for dialyzed urine. A unit of enzyme is defined herein as that amount required to hydrolyze substrate at an initial rate of 1% per minute at 37° C. The foregoing definition is applicable where the concentration of substrate is well below Km such that hydrolysis is first order with respect to substrate concentration. The number of kallikrein units/ml of dialyzed urine is given by [formula] where 1.0 ml of solvent is used for the extraction and an aliquot of 0.5 ml is taken for counting. The blank c.p.m. value is determined in a control reaction lacking enzyme but otherwise treated identically.

Test [3] concerns the target T1, human urinary kallikrein. Description: Km and Vmax of substrates with purified human urinary kallikrein (Lineweaver-Burk double reciprocal plot). How it is done: The double reciprocal plot method of H. Lineweaver and D. Burk (J.Am.Chem.Soc. 56, 658 (1934)) was used to estimate Km and Vmax for these substrates. Purified human urinary kallikrein prepared as described by Oza, N. B. and Ryan, J., supra, was used in this study. Reactions were conducted at 37° C. for 15 minutes with 62.5 ng of enzyme and the indicated amount of substrate, in 0.05 M tris-HCl pH 9.5. Reactions were terminated by the addition of a nine-fold excess of 0.1 N NaOH. The ^3 H-labeled product was separated from substrate by extraction with an equal volume (1 ml) of toluene. A 0.5 ml aliquot of the toluene phase was transferred to a scintillation vial containing a toluene-based scintillation fluid and counted. Results for H-ProPheArg-[^3 H]-benzylamide are shown in FIG. 1, and for H-ProPheArg-[^3 H]anilide in FIG. 2. The units of l/v were nmol^-1 min. Units of l/S were μmole^-1.liter.

Test [4] deals with Plasmin. The experiment in a line: Reaction specificity: hydrolysis by serine proteases. To be noted: 20 nM substrate, 0.1 M tris-HCl, 37° C., 15 minutes. The method, then:
(§1) The hydrolysis of H-ProPheArg-[^3 H]benzylamide by a series of serine proteases was measured. Reactions were carried out using 20 nM substrate in 0.1 M tris-HCl buffer, pH 7.5 or pH 9.5, at 37° C. for 15 minutes in the presence of varied amounts of enzyme. The results are shown in Table 2, expressed as the amount of enzyme necessary to hydrolyze 10% of the substrate under the given conditions. "No hydrolysis" is used to denote no measureable reaction with a maximum of 0.5 mg/ml enzyme.

The subject of test [5] is Thrombin. The test is described as above. To be noted: printed on the pH 9.5 line (pH 7.5 line blank); No hydrolysis = no measureable reaction with a maximum of 0.5 mg/ml enzyme; 20 nM substrate, 37° C., 15 minutes. How it is done:
as §1

The subject of test [6] is Trypsin. Described as above. To be noted: 20 nM substrate, 0.1 M tris-HCl, 37° C., 15 minutes. The method, then: as §1
Test [7] concerns Urokinase. Described as above. To be noted: printed on the pH 9.5 line (pH 7.5 line blank); No hydrolysis = no measureable reaction with a maximum of 0.5 mg/ml enzyme; 20 nM substrate, 37° C., 15 minutes. How it is done: as §1
The target in test [8] is T1, human urinary kallikrein. The test is described as above. To be noted: 20 nM substrate, 0.1 M tris-HCl, 37° C., 15 minutes. The method, then: as §1
The subject of test [9] is α-Chymotrypsin. Described as above. To be noted: printed on the pH 9.5 line (pH 7.5 line blank); No hydrolysis = no measureable reaction with a maximum of 0.5 mg/ml enzyme; 20 nM substrate, 37° C., 15 minutes. How it is done: as §1
The target in test [10] is T1, human urinary kallikrein. Description: Relative activity of halogenated (4-iodoanilide) substrates, spectrophotometric standard assay. To be noted: 150 nmol substrate in 0.7 ml 0.05 tris-HCl, pH 8.1, 37° C. How it is done: Unlabeled halogenated 4-iodoanilide substrates, prepared essentially as described in Example 5, were compared with respect to reaction rate with human urinary kallikrein in a standard assay. Each substrate, 150 nmol, was incubated with purified human urinary kallikrein in 0.7 ml of 0.05 tris-HCl, pH 8.1 at 37° C. At timed intervals, 100 μl of reaction mixture was added to 1.0 ml of 0.1 N NaOH. The resulting solution was extracted with CHCl3 and the organic phase was evaporated to dryness. The residue was dissolved in buffer and examined spectrophotometrically in the 240-300 nm range, where a difference spectrum between substrate and product is measureable. The results are shown in Table 1, with rates of hydrolysis expressed as nmol/min/mg enzyme.

The mark [11] stands for this setting: 62.5 ng purified enzyme, 0.05 M tris-HCl pH 9.5, 37° C., 15 minutes.

Where a SMILES comes first, the peptide text is derived from it. The star is where a group is joined. (3H)benzylamide = C-terminal benzylamide carrying tritium label; (3H)anilide = C-terminal anilide carrying tritium label; pNA = O=[N+]([O-])c1ccc(N*)cc1; Bz = O=C(c1ccccc1)*; X2 = Ic1cccc(CN*)c1; X3 = Ic1ccc(CN*)cc1; X1 = Ic1ccc(N*)cc1

Turning to `[3H]c1cccc(CNC(=O)[C@H](CCCNC(=N)N)NC(=O)[C@H](Cc2ccccc2)NC(=O)[C@@H]2CCCN2C(=O)c2ccccc2)c1` [Benzoyl-ProPheArg-[^3 H]benzylamide], the “rate of hydrolysis relative to the non-acylated compounds” value in test [1] is on record as “about 1/2”.
Consider `N=C(N)NCCC[C@H](NC(=O)[C@H](Cc1ccccc1)NC(=O)[C@@H]1CCCN1C(=O)[C@H](CO)NC(=O)[C@@H](N)Cc1ccccc1)C(=O)NCc1cccc(I)c1` [H-PheSerProPheArg-3-iodobenzylamide] (H-FSPFR-X2), for which the “activity as substrate for human urinary kallikrein (in words)” value (from here on “activity as substrate”) in test [2] is on record as “suitable substrates”.
`N=C(N)NCCC[C@H](NC(=O)[C@H](Cc1ccccc1)NC(=O)[C@@H]1CCCN1C(=O)[C@H](CO)NC(=O)[C@@H](N)Cc1ccccc1)C(=O)NCc1ccc(I)cc1` [H-PheSerProPheArg-4-iodobenzylamide] (H-FSPFR-X3): in test [2], the “activity as substrate” value was “suitable substrates”.
Take `[3H]c1cccc(CNC(=O)[C@H](CCCNC(=N)N)NC(=O)[C@H](Cc2ccccc2)NC(=O)[C@@H]2CCCN2)c1` [H-ProPheArg-[^3 H]benzylamide, H-ProPheArg-[^3 H] benzylamide]: in test [3] (setting [11]), the Michaelis constant (Km) (usually the concentration of substrate that gives half-maximal velocity) was determined as 3 µM. In addition, in test [3] (setting [11]), the Vmax was found to be 0.88 mmol/min/mg protein. Also, the “Amount of Enzyme Required for 10% Hydrolysis” value is given as 17,200 ng in test [4] (pH 7.5); 30,600 ng in test [4] (pH 9.5); “No hydrolysis” in test [5]; 400 ng in [6] (pH 7.5); 1,030 ng in test [6] (pH 9.5); “No hydrolysis” in [7]. Further, the “Amount of Enzyme Required for 10% Hydrolysis” value in test [8] (pH 7.5) is 265 ng; in test [8] (pH 9.5) it was 45 ng; in [9], “No hydrolysis”. Moreover, the “Amount of Enzyme Required for 10% Hydrolysis (as enzyme concentration, in brackets)” value in [8] (pH 9.5) was found to be 10 nM.
Take `N=C(N)NCCC[C@H](NC(=O)[C@H](Cc1ccccc1)NC(=O)[C@@H]1CCCN1C(=O)[C@@H](N)CO)C(=O)NCc1cccc(I)c1` [H-SerProPheArg-3-iodobenzylamide] (H-SPFR-X2): the “activity as substrate” value in test [2] is “suitable substrates”.
As to `N=C(N)NCCC[C@H](NC(=O)[C@H](Cc1ccccc1)NC(=O)[C@@H]1CCCN1C(=O)[C@@H](N)CO)C(=O)NCc1ccc(I)cc1` [H-SerProPheArg-4-iodobenzylamide] (H-SPFR-X3), in test [2], the “activity as substrate” value was “suitable substrates”.
As to `N=C(N)NCCC[C@H](NC(=O)[C@@H](N)Cc1ccccc1)C(=O)Nc1ccc(I)cc1` [Phe--Arg--4-iodoanilide], in test [10], the “Rate of Hydrolysis” value is recorded as “Nil”.
On to `N=C(N)NCCC[C@H](NC(=O)[C@H](Cc1ccccc1)NC(=O)[C@@H]1CCCN1C(=O)[C@H](CO)NC(=O)[C@@H](N)Cc1ccccc1)C(=O)Nc1ccc(I)cc1` [Phe--Ser--Pro--Phe--Arg--4-iodoanilide] (H-FSPFR-X1), for which the “Rate of Hydrolysis” value in [10] is listed as 1.12 nmol/min/mg enzyme.
In the case of `N=C(N)NCCC[C@H](NC(=O)[C@H](Cc1ccccc1)NC(=O)[C@@H]1CCCN1)C(=O)Nc1ccc(I)cc1` [Pro--Phe--Arg--4-iodoanilide], the “Rate of Hydrolysis” value in [10] is on record as 0.73 nmol/min/mg enzyme.
For `N=C(N)NCCC[C@H](NC(=O)[C@H](Cc1ccccc1)NC(=O)[C@@H]1CCCN1C(=O)[C@@H](N)CO)C(=O)Nc1ccc(I)cc1` [Ser--Pro--Phe--Arg--4-iodoanilide] (H-SPFR-X1), the “Rate of Hydrolysis” value in [10] amounted to 0.62 nmol/min/mg enzyme.
Consider `[3H]c1cccc(CNC(=O)[C@H](CCCNC(=N)N)NC(=O)[C@H](Cc2ccccc2)NC(=O)[C@@H]2CCCN2C(C)=O)c1` [acetylated], for which, in test [1], the “rate of hydrolysis relative to the non-acylated compounds” value was “generally similar rates”.
With `N=C(N)NCCC[C@H](NC(=O)[C@H](Cc1ccccc1)NC(=O)[C@@H]1CCCN1C(=O)c1ccccc1)C(=O)Nc1ccc([N+](=O)[O-])cc1` [benzoyl-ProPheArg-p-nitroanilide, reference compound] (Bz-Pro-Phe-Arg-pNA), the “activity as substrate” value in test [2] is “inactive”.
Regarding `[3H]c1cccc(CNC(=O)[C@H](CCCNC(=N)N)NC(=O)[C@H](Cc2ccccc2)NC(=O)[C@@H]2CCCN2C(=O)C2CCCC2)c1` [cyclopentylcarbonylated], in [1], the “rate of hydrolysis relative to the non-acylated compounds” value is reported as “generally similar rates”.
With `[3H]c1cccc(CNC(=O)[C@H](CCCNC(=N)N)NC(=O)[C@H](Cc2ccccc2)NC(=O)[C@@H]2CCCN2C(=O)CCC(=O)O)c1` [succinyl derivative, Succinyl-ProPheArg-[^3 H]benzylamide], in test [1], the “rate of hydrolysis relative to the non-acylated compounds” value is recorded as 1/10.
In the case of “H-PheSerProPheArg-[^3 H] anilide (H-FSPFR-{(3H)anilide})”, the “activity as substrate” value in test [2] is on record as “substrates”.
The same measure, in the same setting: the same measure for “H-PheSerProPheArg-[^3 H]benzylamide (H-FSPFR-{(3H)benzylamide})”: “suitable substrates”.
For H-ProPheArg-[^3 H]anilide, the results for the Vmax in test [3] (setting [11]) and in test [3] (as summarised in the detailed description) were 0.39 mmol/min/mg protein and “approximately 0.39 mmol/min/mg”, respectively. Besides, the Michaelis constant (Km) in test [3] (62.5 ng purified enzyme, 0.05 M tris-HCl pH 9.5, 37° C., 15 minutes, listed as H-ProPheArg-[^3 H]-anilide) was 0.8 µM; in [3] (62.5 ng purified enzyme, 0.05 M tris-HCl pH 9.5, 37° C., 15 minutes, listed as ProPheArg-[^3 H] anilide), roughly 0.8 µM. Also, the “activity as substrate” value in test [2] was “excellent substrate”.
In the case of “H-SerProPheArg-[^3 H]-benzylamide (H-SPFR-{(3H)benzylamide})”, the “activity as substrate” value in test [2] is “suitable substrates”.
On to “H-SerProPheArg-[^3 H]anilide (H-SPFR-{(3H)anilide})”, for which the “activity as substrate” value in [2] is “substrates”.
